Test results from patent publication US20120066778A1, “CONTROL OF URIC ACID HOMEOSTASIS” (priority 2009, published 2012).

B1: mUox: intracellular variant of the urate oxidase from Aspergillus flavus codon-optimized for expression in mammalian cells (protein, UniProt Q00511 2-302, looked up)
Uricase: SAVKAARYGKDNVRVYKVHKDEKTGVQTVYEMTVCVLLEGEIETSYTKADNSVIVATDSIKNTIYITAKQNPVTPPELFGSILGTHFIEKYNHIHAAHVNIVCHRWTRMDIDGKPHPHSFIRDSEEKRNVQVDVVEGKGIDIKSSLSGLTVLKSTNSQFWGFLRDEYTTLKETWDRILSTDVDATWQWKNFSGLQEVRSHVPKFDATWATAREVTLKTFAEDNSASVQATMYKMAEQILARQQLIETVEYSLPNKHYFEIDLSWHKGLQNTGKNAEVFAPQSDPNGLIKCTVGRSSLKSKL
modifications: codon-optimized for mammalian expression
notes: intracellular variant of the urate oxidase from Aspergillus flavus codon-optimized for expression in mammalian cells

Key:
[1] = tested on: UREX sensor circuit (mUTS, hucO8); assay: Uric acid response of UREX-controlled SEAP expression in cultured human cells; assay type: cell-based; conditions: 5 mM uric acid added to cultures transfected with pCK9 and pCK25, 48 h
Procedure: (d) Functional validation of the UREX sensor circuit. 4×10^4 HeLa cells were co-transfected with the UREX expression vectors pCK9 and pCK25 (see FIG. 1a) and cultivated for 48 h in the presence or absence of 5 mM uric acid before SEAP was quantified in the cell culture supernatant.
(e-g) Urate-dependent dose-response characteristics of UREX in the presence and absence of the human urate transporter URAT1. 3×10^5 HeLa (e), HEK-293 (f) or HT-1080 cells (g) were co-transfected with the UREX sensor plasmids pCK9 and pCK25 (see FIG. 1a) and either pURAT1 (PhCMV-URAT1-pA) or the isogenic control vector pcDNA3.1. The transfected populations were cultivated in medium supplemented with different uric acid concentrations and resulting SEAP levels were profiled after 48 h.
(b) Urate-based dose-response profile of the triple-transgenic HEK-293UREX15 cell line stably engineered for UREX-controlled SEAP and constitutive URAT1 expression. 5×10^4 HEK-293UREX15 were cultivated in the presence of different urate concentrations and SEAP levels were quantified in the culture supernatant after 72 h.
(c) Reversibility of the UREX-based uric acid sensor circuit. 2×10^5 HEK-293UREX15 cells were cultivated for 10 days while alternating uric acid concentrations from 0 to 5 mM every 72 h (arrows). […]

uric acid = assay: Urate reduction in culture medium by mUox/smUox-expressing HeLaURAT1 cells; assay type: cell-based, human; conditions: HeLaURAT1, 0.5 mM uric acid, 72 h, constitutive or mUTS-controlled expression
Procedure: (a) Profiling of urate reduction mediated by constitutive or UREX-controlled expression of an intracellular (mUox) or secretion-engineered (smUox) urate oxidase variant. 2×10^5 HeLaURAT1 cells were co-transfected with either (i) pCK65 (PUREX8-smUox-pA) and isogenic control vector pcDNA3.1, (ii) pCK65 (PUREX8-smUox-pA) and pCK25 (PhEF1α-mUTS-pA), (iii) pCK67 (PUREX8-mUox-pA) and pcDNA3.1 or (iv) pCK67 (PUREX8-mUox-pA) and pCK25 (PhEF1α-mUTS-pA). The cells were cultivated for 72 h with 0.5 mM uric acid before urate levels were determined in the culture supernatant.
(b) Urate degradation profiles UREX-controlled smUox expression. […]
SEAP levels are quantified in cell culture supernatants and mouse serum using a standard p-nitrophenylphosphate-based light absorbance time course (Berger, J., Hauber, J., Hauber, R., Geiger, R. & Cullen, B. R., Gene 66, 1-10 (1988)). Uric acid levels are assessed in cell culture supernatants, murine serum or urine using the Amplex® Red uric acid/uricase assay kit (Invitrogen, Basel, Switzerland, Cat. No. A22181) according to the manufacturer's protocol. […] The addition of uricase triggers the enzymatic conversion of uric acid to allantoin, CO2 and H2O2 that reacts, in the presence of horseradish peroxidase stoichiometrically with Amplex Red reagent to generate the red-fluorescent oxidation product resorufin which can be quantified at 585 nm.

| Molecule | effect on SEAP expression [1] | reduction of uric acid in the culture medium (uric acid) |
| --- | --- | --- |
| O=c1[nH]c(=O)c2[nH]c(=O)[nH]c2[nH]1 [uric acid, 7,9-dihydro-3H-purine-2,6,8-trione] | derepresses SEAP expression |  |
| B1 |  | reduces uric acid |
